Measured values published in publication PMC11944037, “Investigating the Mechanism of Action of Ipomoea pes-caprae in the Treatment of Rheumatoid Arthritis Based on Serum Metabolomics and Network Pharmacology” (Marine Drugs, 2025).

tested on: tyrosine kinases on fibroblast-like synoviocytes (FLS); test: not given; conditions: cited from earlier work

SMILES | NF-κB signaling in fibroblast-like synoviocytes
COc1cc2ccc(=O)oc2cc1O [Scopoletin] | block NF-κB signaling

tested on: RA-FLS; test: not given; set-up: method as in PMID 28463788; conditions: by blocking phosphorylation of IκB and IκB kinases; cited from earlier work

SMILES | IL-6 and TNF-α, inflammatory response in RA-FLS
O=C(O)/C=C/c1ccc(O)c(O)c1 [Caffeic acid] | inhibits IL-6 and TNF-α

tested on: NF-κB and Akt/mTOR signaling pathways; test: not given; set-up: method as in PMID 32510258; conditions: cited from earlier work

SMILES | secretion of MMP-3, MMP-13, TNF-α, IL-1β, and IL-6
O=C(O)c1ccc(O)c(O)c1 [Protocatechuic acid] | inhibits the secretion

tested on: JAK/STAT pathway; test: not given; conditions: modulating CRP, RF, TNF-α, TGF-β levels; cited from earlier work

SMILES | JAK/STAT pathway-mediated RA
COc1cc(/C=C/C(=O)O)ccc1O [Ferulic acid] | inhibits JAK/STAT pathway-mediated RA

tested on: not listed separately; test: Pharmacokinetics of absorbed components of IPE in plasma; assay type: in vivo, SD rats; conditions: WCM + IPE group; component of orally given IPE; n = 6
Text: (Haodan Science and Technology Park, No.99 Changchong Road, Longping High-tech Park, Furong District, Changsha City, China), Animal License No. SCXK (Hunan) 2019-0004. The animal experiments were approved by the Animal Ethics Committee of Guangxi University of Chinese Medicine (Approval No. DW20220220-117). After one week of adaptive feeding, the animals were randomly divided into eight groups of 10 animals according to weight stratification: normal control group (Con), natural bovine type II collagen model group (CII), wind-dampness cold bi-syndrome model group (WCM), wind-dampness heat bi-syndrome model group (WHM), wind-dampness cold bi-syndrome + Ipomoea […] group ([…]), wind-dampness heat bi-syndrome + Ipomoea […] group ([…]), wind-dampness cold bi-syndrome + Duhuo group (WCM + DH) (Duhuo formula granules), and wind-dampness heat bi-syndrome + Fangji group (WHM + FJ) (Fangji formula granules). […] The oral dose of IPE was 13.5 g/kg, and the dosing volume was 20 mL/kg. The oral doses of Duhuo formula granules and Fangji formula granules were 9.0 g/kg, with a dosing volume of 20 mL/kg for each. The blank control group and each model group were administered an equal volume of distilled water by oral gavage. […] The supernatant was transferred to a new centrifuge tube and stored in a refrigerator at -80 °C for the detection of absorbed components in plasma and pharmacokinetics. In addition, after the end of the entire experimental cycle, blood was taken from the abdominal aorta of the rat. The blood samples were kept at room temperature for 2 h, then centrifuged at 4 °C at 3000 rpm for 10 min, and the upper serum was aspirated. The samples were stored at -80 °C in a low-temperature refrigerator for TNF-α, IL-6 detection, and metabolomics detection. In order to further elaborate on the in vivo pharmacokinetic characteristics of IPE, this study selected caffeic acid, protocatechuic acid, and ferulic acid as the research objects to explore their in vivo absorption and metabolism characteristics. In addition, syringic acid was chosen as the internal standard. […] Use A as 0.1% acetic acid aqueous solution (A) acetonitrile (B) as the mobile phase, with gradient elution (0-6 min, 5-20% B; 6-10 min, 20-40% B), a volume flow of 0.4 mL/min, a column temperature of 40 °C, and an injection volume of 3 μL. Ion source: electrospray ion source (ESI), negative ion mode collection, simultaneous measurement by multiple reaction monitoring (MRM) mode.

SMILES | Tmax
COc1cc(/C=C/C(=O)O)ccc1O [Ferulic acid] | 0.33 ± 0.12 h

same assay, conditions: male, SD, rat, plasma, po, 13.5 g/kg, Con + IPE group; component of orally given IPE; n = 6

SMILES | AUC(0-t) | Cmax | half-life
O=C(O)/C=C/c1ccc(O)c(O)c1 [Caffeic acid] | 2080 ± 349 ng·h/mL | 703 ± 190 ng/mL | 4.51 ± 3.03 h
O=C(O)c1ccc(O)c(O)c1 [Protocatechuic acid] | 504 ± 177 ng·h/mL | 269 ± 90.2 ng/mL | 1.93 ± 1.01 h
COc1cc(/C=C/C(=O)O)ccc1O [Ferulic acid] | 60.6 ± 27.3 ng·h/mL | 35.8 ± 10.9 ng/mL | 1.51 ± 0.51 h

same assay, conditions: male, SD, rat, plasma, po, 13.5 g/kg, Con + IPE group; component of orally given IPE; n = 6; read-out: MRT0~t

SMILES | MRT last
O=C(O)/C=C/c1ccc(O)c(O)c1 [Caffeic acid] | 4.18 ± 1.82 h
O=C(O)c1ccc(O)c(O)c1 [Protocatechuic acid] | 1.9 ± 0.42 h
COc1cc(/C=C/C(=O)O)ccc1O [Ferulic acid] | 1.3 ± 0.28 h

same assay, conditions: male, SD, rat, plasma, po, 13.5 g/kg, Con + IPE group; component of orally given IPE; n = 6; read-out: Tmax

SMILES | Tmax
O=C(O)/C=C/c1ccc(O)c(O)c1 [Caffeic acid] | 0.85 ± 0.22 h
O=C(O)c1ccc(O)c(O)c1 [Protocatechuic acid] | 0.66 ± 0.25 h
COc1cc(/C=C/C(=O)O)ccc1O [Ferulic acid] | 0.45 ± 0.1 h

same assay, conditions: male, SD, rat, plasma, po, 13.5 g/kg, WCM + IPE group; component of orally given IPE; n = 6

SMILES | AUC(0-t) | Cmax | half-life
O=C(O)/C=C/c1ccc(O)c(O)c1 [Caffeic acid] | 1130 ± 163 ng·h/mL | 342 ± 123 ng/mL | 2.82 ± 1.07 h
O=C(O)c1ccc(O)c(O)c1 [Protocatechuic acid] | 194 ± 100 ng·h/mL | 121 ± 77.4 ng/mL | 1.46 ± 0.32 h
COc1cc(/C=C/C(=O)O)ccc1O [Ferulic acid] | 34.9 ± 22.6 ng·h/mL | 26.1 ± 11.6 ng/mL | 1.02 ± 0.46 h

same assay, conditions: male, SD, rat, plasma, po, 13.5 g/kg, WCM + IPE group; component of orally given IPE; n = 6; read-out: MRT0~t

SMILES | MRT last
O=C(O)/C=C/c1ccc(O)c(O)c1 [Caffeic acid] | 3.32 ± 0.35 h
O=C(O)c1ccc(O)c(O)c1 [Protocatechuic acid] | 1.59 ± 0.38 h
COc1cc(/C=C/C(=O)O)ccc1O [Ferulic acid] | 1.05 ± 0.35 h

same assay, conditions: male, SD, rat, plasma, po, 13.5 g/kg, WCM + IPE group; component of orally given IPE; n = 6; read-out: Tmax

SMILES | Tmax
O=C(O)/C=C/c1ccc(O)c(O)c1 [Caffeic acid] | 0.62 ± 0.14 h
O=C(O)c1ccc(O)c(O)c1 [Protocatechuic acid] | 0.41 ± 0.12 h

same assay, conditions: male, SD, rat, plasma, po, 13.5 g/kg, WHM + IPE group; component of orally given IPE; n = 6

SMILES | AUC(0-t) | Cmax | half-life
O=C(O)/C=C/c1ccc(O)c(O)c1 [Caffeic acid] | 2300 ± 410 ng·h/mL | 709 ± 194 ng/mL | 3.82 ± 2.55 h
O=C(O)c1ccc(O)c(O)c1 [Protocatechuic acid] | 307 ± 98.3 ng·h/mL | 145 ± 53.2 ng/mL | 1.25 ± 0.36 h
COc1cc(/C=C/C(=O)O)ccc1O [Ferulic acid] | 104 ± 41.2 ng·h/mL | 38.8 ± 16.2 ng/mL | 1.31 ± 0.32 h

same assay, conditions: male, SD, rat, plasma, po, 13.5 g/kg, WHM + IPE group; component of orally given IPE; n = 6; read-out: MRT0~t

SMILES | MRT last
O=C(O)/C=C/c1ccc(O)c(O)c1 [Caffeic acid] | 4.53 ± 1.34 h
O=C(O)c1ccc(O)c(O)c1 [Protocatechuic acid] | 1.83 ± 0.24 h
COc1cc(/C=C/C(=O)O)ccc1O [Ferulic acid] | 2.27 ± 0.42 h

same assay, conditions: male, SD, rat, plasma, po, 13.5 g/kg, WHM + IPE group; component of orally given IPE; n = 6; read-out: Tmax

SMILES | Tmax
O=C(O)/C=C/c1ccc(O)c(O)c1 [Caffeic acid] | 0.93 ± 0.12 h
O=C(O)c1ccc(O)c(O)c1 [Protocatechuic acid] | 0.62 ± 0.14 h
COc1cc(/C=C/C(=O)O)ccc1O [Ferulic acid] | 0.7 ± 0.27 h

tested on: LTB4; test: not given; set-up: method as in PMID 27826169; conditions: cited from earlier work

SMILES | LTB4 levels
O=c1ccc2cc(O)c(O)cc2o1 [Esculetine] | decreasing LTB4 levels

tested on: not listed separately; test: Identification and relative content of absorbed components of IPE in plasma (UPLC-MS); assay type: in vivo, SD rats; conditions: Con + IPE group (normal rats), oral IPE 13.5 g/kg; peak area normalization
Text: A total of 83 male SD rats, SPF grade, six weeks old, body mass (200 ± 10 g), were purchased from Hunan SJA Laboratory Animal Co., Ltd. (Haodan Science and Technology Park, No.99 Changchong Road, Longping High-tech Park, Furong District, Changsha City, China), Animal License No. SCXK (Hunan) 2019-0004. The animal experiments were approved by the Animal Ethics Committee of Guangxi University of Chinese Medicine (Approval No. DW20220220-117). After one week of adaptive feeding, the animals were randomly divided into eight groups of 10 animals according to weight stratification: normal control group (Con), natural bovine type II collagen model group (CII), wind-dampness cold bi-syndrome model group (WCM), wind-dampness heat bi-syndrome model group (WHM), wind-dampness cold bi-syndrome + Ipomoea pes-caprae group (WCM + IPE), wind-dampness heat bi-syndrome + Ipomoea pes-caprae group (WHM + IPE), wind-dampness cold bi-syndrome + Duhuo group (WCM + DH) (Duhuo formula granules), and wind-dampness heat bi-syndrome + Fangji group (WHM + FJ) (Fangji formula granules). Another three rats were randomly selected as the normal administration group (Con + IPE), and the absorbed components in plasma were studied in vivo. The oral dose of IPE was 13.5 g/kg, and the dosing volume was 20 mL/kg. The oral doses of Duhuo formula granules and Fangji formula granules were 9.0 g/kg, with a dosing volume of 20 mL/kg for each. The blank control group and each model group were administered an equal volume of distilled water by oral gavage. The administration was performed once daily for 28 consecutive days.
Rats were fasted for 12 h before administration but not deprived of water, then weighed and administered. A total of 0.2 mL of blood was collected from the orbit at 5 min, 30 min, 45 min, 1 h, 2 h, 4 h, 6 h, 8 h, and 12 h after the end of gavage administration and placed in a centrifuge tube with a preservative anticoagulant (1.5% EDTA aqueous solution, 1.5 mL). The samples were centrifuged at 4 °C for 10 min at 4000 rpm to separate the plasma. The supernatant was transferred to a new centrifuge tube and stored in a refrigerator at −80 °C for the detection of absorbed components in plasma and pharmacokinetics. In addition, after the end of the entire experimental cycle, blood was taken from the abdominal aorta of the rat. The blood samples were kept at room temperature for 2 h, then centrifuged at 4 °C at 3000 rpm for 10 min, and the upper serum was aspirated. The samples were stored at −80 °C in a low-temperature refrigerator for TNF-α, IL-6 detection, and metabolomics detection.
Ultra-high liquid chromatograph (model: ExionLC AC, manufacturer: SCIEX Corporation, USA) and QTOF mass spectrometer (model: X500R, manufacturer: SCIEX Corporation, USA), Waters ACQUITY UPLC HSS T3 C18 column (1.8 μm, 2.1 × 100 mm) was used as the mobile phase for the separation of 0.1% formic acid aqueous solution (A)-acetonitrile (B) as a mobile phase, gradient elution (0~30 min, 5%~95% B); volume flow rate of 0.4 mL/min; injection volume: 3 μL, column temperature: 40 °C. Ion source: dual-spray TurboV, positive and negative ion scanning, TOF MS scanning range of m/z 100~1500, positive/negative ion source voltage of […], ion source temperature: 600 °C, GS1: 55 psi, GS2: 55 psi, air curtain gas pressure: 35 psi, parent ion collision energy: ±10 V, de-cluster voltage (DP): ±80 V, daughter ion collision energy (CE): ±35 V.
Expressed as mean ± standard deviation ( x¯ ± s) and processed by GraphPad Prism 8.4.3 statistical software, statistical comparisons were evaluated by one-way ANOVA, followed by the Student–Newman–Keuls post hoc test. The difference was statistically significant with p < 0.05 and p < 0.01. […]

SMILES | Relative Content of absorbed component in plasma
O=C(O)/C=C/c1ccc(O)c(O)c1 [Caffeic acid] | 33.04%
O=C(O)c1ccc(O)c(O)c1 [Protocatechuic acid] | 1.04%
COc1cc2ccc(=O)oc2cc1O [Scopoletin] | 5.83%
COc1cc(/C=C/C(=O)O)ccc1O [Ferulic acid] | 17.23%
O=c1ccc2cc(O)c(O)cc2o1 [Esculetine] | 0.39%

same assay, conditions: WCM + IPE group, oral IPE 13.5 g/kg; peak area normalization

SMILES | Relative Content of absorbed component in plasma
O=C(O)/C=C/c1ccc(O)c(O)c1 [Caffeic acid] | 30.2%
O=C(O)c1ccc(O)c(O)c1 [Protocatechuic acid] | 1.14%
COc1cc2ccc(=O)oc2cc1O [Scopoletin] | 4.71%
COc1cc(/C=C/C(=O)O)ccc1O [Ferulic acid] | 20.09%
O=c1ccc2cc(O)c(O)cc2o1 [Esculetine] | 0.5%

same assay, conditions: WHM + IPE group, oral IPE 13.5 g/kg; peak area normalization

SMILES | Relative Content of absorbed component in plasma
O=C(O)/C=C/c1ccc(O)c(O)c1 [Caffeic acid] | 34.24%
O=C(O)c1ccc(O)c(O)c1 [Protocatechuic acid] | 0.84%
COc1cc2ccc(=O)oc2cc1O [Scopoletin] | 5.56%
COc1cc(/C=C/C(=O)O)ccc1O [Ferulic acid] | 17.71%
O=c1ccc2cc(O)c(O)cc2o1 [Esculetine] | 0.58%
